Experimental data published in ChEMBL document CHEMBL4507293 (2021).

Tests used:
[1] = target: Neuropeptide Y receptor type 1 (Homo sapiens) (UniProt P25929); test: Inhibition of Neuropeptide Y Y1 at 10 µM in the Eurofins-Panlabs radioligand binding assay (Eurofins_assay_257010); details: Compound concentration 10.0 uM
[2] = target: Mitogen-activated protein kinase 3 (Homo sapiens) (UniProt P27361); test: Inhibition of Protein Serine/Threonine Kinase, MAPK3 (ERK1) at 10 µM in the Eurofins-Panlabs enzyme assay (Eurofins_assay_171000); details: Compound concentration 10.0 uM
[3] = target: Alpha-2A adrenergic receptor (Homo sapiens) (UniProt P08913); test: Adrenergic alpha2A Eurofins-Panlabs radioligand binding assay; parameters: ligand concentration 1 nM, non-specific ligand with concentration 10 µM WB-4101, incubation time 60 min, incubation temperature 25 °C; details: Compound concentration 10.0 uM
[4] = target: C-X-C chemokine receptor type 4 (Homo sapiens) (UniProt P61073); test: Chemokine CXCR4 Eurofins-Panlabs radioligand binding assay; parameters: ligand concentration 0.03 nM; details: Compound concentration 10.0 uM
Rattus norvegicus = species on record: Rattus norvegicus; test: Glutamate, NMDA, Polyamine Eurofins-Panlabs radioligand binding assay; assay type: protein-complex assay; parameters: ligand concentration 2 nM; details: Compound concentration 10.0 uM
[5] = target: Melanin-concentrating hormone receptor 1 (Homo sapiens) (UniProt Q99705); test: Melanin-Concentrating Hormone MCH1 (SLC1) Eurofins-Panlabs radioligand binding assay; parameters: ligand concentration 0.05 nM; details: Compound concentration 10.0 uM
Homo sapiens = species on record: Homo sapiens; test: Cholecystokinin CCK2 (CCKB) Eurofins-Panlabs radioligand binding assay; parameters: ligand concentration 0.072 nM, non-specific ligand with concentration 1 µM Sincalide, incubation time 3 h, incubation temperature 25 °C; details: Compound concentration 10.0 uM
[6] = target: NUAK family SNF1-like kinase 1 (Homo sapiens) (UniProt O60285); details: Compound concentration 100.0 nM
[7] = target: Aurora kinase B (Homo sapiens) (UniProt Q96GD4); details: Compound concentration 100.0 nM
[8] = target: Bone morphogenetic protein receptor type-1B (Homo sapiens) (UniProt O00238); details: Compound concentration 100.0 nM
[9] = target: Tyrosine-protein kinase BTK (Homo sapiens) (UniProt Q06187); details: Compound concentration 100.0 nM
[10] = target: Calcium/calmodulin-dependent protein kinase type 1D (Homo sapiens) (UniProt Q8IU85); details: Compound concentration 100.0 nM
[11] = target: Cyclin-dependent kinase 3 (Homo sapiens) (UniProt Q00526); details: Compound concentration 100.0 nM
[12] = target: Cyclin-dependent kinase 4 (Homo sapiens) (UniProt P11802); details: Compound concentration 100.0 nM
[13] = target: Dual specificity protein kinase CLK2 (Homo sapiens) (UniProt P49760); details: Compound concentration 100.0 nM
[14] = target: Dual specificity protein kinase CLK3 (Homo sapiens) (UniProt P49761); details: Compound concentration 100.0 nM
[15] = test system: Epidermal growth factor receptor (Homo sapiens), P00533 [L858R]; details: Compound concentration 100.0 nM
[16] = target: Eukaryotic translation initiation factor 2-alpha kinase 1 (Homo sapiens) (UniProt Q9BQI3); details: Compound concentration 100.0 nM
[17] = target: Ephrin type-A receptor 8 (Homo sapiens) (UniProt P29322); details: Compound concentration 100.0 nM
[18] = target: Mitogen-activated protein kinase 7 (Homo sapiens) (UniProt Q13164); details: Compound concentration 100.0 nM
[19] = target: Interleukin-1 receptor-associated kinase 4 (Homo sapiens) (UniProt Q9NWZ3); details: Compound concentration 100.0 nM
[20] = target: Mitogen-activated protein kinase 9 (Homo sapiens) (UniProt P45984); details: Compound concentration 100.0 nM
[21] = target: Mast/stem cell growth factor receptor Kit (Homo sapiens) (UniProt P10721); details: Compound concentration 100.0 nM
[22] = test system: Mast/stem cell growth factor receptor Kit (Homo sapiens), P10721 [A829P]; details: Compound concentration 100.0 nM
[23] = target: Leucine-rich repeat serine/threonine-protein kinase 2 (Homo sapiens) (UniProt Q5S007); details: Compound concentration 100.0 nM
[24] = target: Mitogen-activated protein kinase kinase kinase 15 (Homo sapiens) (UniProt Q6ZN16); details: Compound concentration 100.0 nM
[25] = target: Misshapen-like kinase 1 (Homo sapiens) (UniProt Q8N4C8); details: Compound concentration 100.0 nM
[26] = target: Serine/threonine-protein kinase 38-like (Homo sapiens) (UniProt Q9Y2H1); details: Compound concentration 100.0 nM
[27] = target: Cyclin-dependent kinase 16 (Homo sapiens) (UniProt Q00536); details: Compound concentration 100.0 nM
[28] = target: Phosphorylase b kinase regulatory subunit alpha, liver isoform (Homo sapiens) (UniProt P46019); details: Compound concentration 100.0 nM
[29] = test system: Phosphatidylinositol 4,5-bisphosphate 3-kinase catalytic subunit alpha isoform (Homo sapiens), P42336 [Q546K]; details: Compound concentration 100.0 nM
[30] = target: cAMP-dependent protein kinase catalytic subunit alpha (Homo sapiens) (UniProt P17612); details: Compound concentration 100.0 nM
[31] = target: Receptor-interacting serine/threonine-protein kinase 2 (Homo sapiens) (UniProt O43353); details: Compound concentration 100.0 nM
[32] = target: Serine/threonine-protein kinase 16 (Homo sapiens) (UniProt O75716); details: Compound concentration 100.0 nM
[33] = target: Non-receptor tyrosine-protein kinase TYK2 (Homo sapiens) (UniProt P29597); details: Compound concentration 100.0 nM
[34] = target: Endothelin-1 receptor (Homo sapiens) (UniProt P25101); details: Compound concentration 10.0 uM
[35] = target: T1, 5-hydroxytryptamine receptor 1A (Homo sapiens) (UniProt P08908); details: Compound concentration 10.0 uM
T1 sequence (whole entry): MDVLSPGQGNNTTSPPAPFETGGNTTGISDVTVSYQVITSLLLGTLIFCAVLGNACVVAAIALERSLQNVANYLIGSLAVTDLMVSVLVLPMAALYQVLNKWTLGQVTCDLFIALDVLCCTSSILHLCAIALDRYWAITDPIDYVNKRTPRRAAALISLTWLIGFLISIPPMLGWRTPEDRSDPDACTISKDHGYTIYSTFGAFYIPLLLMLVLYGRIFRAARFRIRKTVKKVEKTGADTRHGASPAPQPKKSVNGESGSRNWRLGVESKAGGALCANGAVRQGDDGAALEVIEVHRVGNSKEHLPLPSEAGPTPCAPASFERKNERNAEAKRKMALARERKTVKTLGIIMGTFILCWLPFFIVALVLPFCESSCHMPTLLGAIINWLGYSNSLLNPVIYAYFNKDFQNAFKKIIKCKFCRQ

Chain of Dual specificity protein kinase CLK2 (Homo sapiens) (P49760 whole entry, looked up): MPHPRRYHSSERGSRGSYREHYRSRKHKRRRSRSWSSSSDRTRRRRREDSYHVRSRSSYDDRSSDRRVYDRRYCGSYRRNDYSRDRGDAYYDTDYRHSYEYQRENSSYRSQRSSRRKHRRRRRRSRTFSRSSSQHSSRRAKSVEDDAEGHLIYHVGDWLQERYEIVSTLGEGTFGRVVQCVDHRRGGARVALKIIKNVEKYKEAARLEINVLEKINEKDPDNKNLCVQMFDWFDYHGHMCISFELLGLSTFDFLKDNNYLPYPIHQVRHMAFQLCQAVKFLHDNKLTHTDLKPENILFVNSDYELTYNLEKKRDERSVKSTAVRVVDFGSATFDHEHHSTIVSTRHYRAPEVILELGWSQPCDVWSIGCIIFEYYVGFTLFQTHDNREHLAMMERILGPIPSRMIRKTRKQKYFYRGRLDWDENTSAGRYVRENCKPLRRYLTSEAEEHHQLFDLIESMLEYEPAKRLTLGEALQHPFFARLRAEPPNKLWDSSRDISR
Chain of Leucine-rich repeat serine/threonine-protein kinase 2 (Homo sapiens) (Q5S007 whole entry): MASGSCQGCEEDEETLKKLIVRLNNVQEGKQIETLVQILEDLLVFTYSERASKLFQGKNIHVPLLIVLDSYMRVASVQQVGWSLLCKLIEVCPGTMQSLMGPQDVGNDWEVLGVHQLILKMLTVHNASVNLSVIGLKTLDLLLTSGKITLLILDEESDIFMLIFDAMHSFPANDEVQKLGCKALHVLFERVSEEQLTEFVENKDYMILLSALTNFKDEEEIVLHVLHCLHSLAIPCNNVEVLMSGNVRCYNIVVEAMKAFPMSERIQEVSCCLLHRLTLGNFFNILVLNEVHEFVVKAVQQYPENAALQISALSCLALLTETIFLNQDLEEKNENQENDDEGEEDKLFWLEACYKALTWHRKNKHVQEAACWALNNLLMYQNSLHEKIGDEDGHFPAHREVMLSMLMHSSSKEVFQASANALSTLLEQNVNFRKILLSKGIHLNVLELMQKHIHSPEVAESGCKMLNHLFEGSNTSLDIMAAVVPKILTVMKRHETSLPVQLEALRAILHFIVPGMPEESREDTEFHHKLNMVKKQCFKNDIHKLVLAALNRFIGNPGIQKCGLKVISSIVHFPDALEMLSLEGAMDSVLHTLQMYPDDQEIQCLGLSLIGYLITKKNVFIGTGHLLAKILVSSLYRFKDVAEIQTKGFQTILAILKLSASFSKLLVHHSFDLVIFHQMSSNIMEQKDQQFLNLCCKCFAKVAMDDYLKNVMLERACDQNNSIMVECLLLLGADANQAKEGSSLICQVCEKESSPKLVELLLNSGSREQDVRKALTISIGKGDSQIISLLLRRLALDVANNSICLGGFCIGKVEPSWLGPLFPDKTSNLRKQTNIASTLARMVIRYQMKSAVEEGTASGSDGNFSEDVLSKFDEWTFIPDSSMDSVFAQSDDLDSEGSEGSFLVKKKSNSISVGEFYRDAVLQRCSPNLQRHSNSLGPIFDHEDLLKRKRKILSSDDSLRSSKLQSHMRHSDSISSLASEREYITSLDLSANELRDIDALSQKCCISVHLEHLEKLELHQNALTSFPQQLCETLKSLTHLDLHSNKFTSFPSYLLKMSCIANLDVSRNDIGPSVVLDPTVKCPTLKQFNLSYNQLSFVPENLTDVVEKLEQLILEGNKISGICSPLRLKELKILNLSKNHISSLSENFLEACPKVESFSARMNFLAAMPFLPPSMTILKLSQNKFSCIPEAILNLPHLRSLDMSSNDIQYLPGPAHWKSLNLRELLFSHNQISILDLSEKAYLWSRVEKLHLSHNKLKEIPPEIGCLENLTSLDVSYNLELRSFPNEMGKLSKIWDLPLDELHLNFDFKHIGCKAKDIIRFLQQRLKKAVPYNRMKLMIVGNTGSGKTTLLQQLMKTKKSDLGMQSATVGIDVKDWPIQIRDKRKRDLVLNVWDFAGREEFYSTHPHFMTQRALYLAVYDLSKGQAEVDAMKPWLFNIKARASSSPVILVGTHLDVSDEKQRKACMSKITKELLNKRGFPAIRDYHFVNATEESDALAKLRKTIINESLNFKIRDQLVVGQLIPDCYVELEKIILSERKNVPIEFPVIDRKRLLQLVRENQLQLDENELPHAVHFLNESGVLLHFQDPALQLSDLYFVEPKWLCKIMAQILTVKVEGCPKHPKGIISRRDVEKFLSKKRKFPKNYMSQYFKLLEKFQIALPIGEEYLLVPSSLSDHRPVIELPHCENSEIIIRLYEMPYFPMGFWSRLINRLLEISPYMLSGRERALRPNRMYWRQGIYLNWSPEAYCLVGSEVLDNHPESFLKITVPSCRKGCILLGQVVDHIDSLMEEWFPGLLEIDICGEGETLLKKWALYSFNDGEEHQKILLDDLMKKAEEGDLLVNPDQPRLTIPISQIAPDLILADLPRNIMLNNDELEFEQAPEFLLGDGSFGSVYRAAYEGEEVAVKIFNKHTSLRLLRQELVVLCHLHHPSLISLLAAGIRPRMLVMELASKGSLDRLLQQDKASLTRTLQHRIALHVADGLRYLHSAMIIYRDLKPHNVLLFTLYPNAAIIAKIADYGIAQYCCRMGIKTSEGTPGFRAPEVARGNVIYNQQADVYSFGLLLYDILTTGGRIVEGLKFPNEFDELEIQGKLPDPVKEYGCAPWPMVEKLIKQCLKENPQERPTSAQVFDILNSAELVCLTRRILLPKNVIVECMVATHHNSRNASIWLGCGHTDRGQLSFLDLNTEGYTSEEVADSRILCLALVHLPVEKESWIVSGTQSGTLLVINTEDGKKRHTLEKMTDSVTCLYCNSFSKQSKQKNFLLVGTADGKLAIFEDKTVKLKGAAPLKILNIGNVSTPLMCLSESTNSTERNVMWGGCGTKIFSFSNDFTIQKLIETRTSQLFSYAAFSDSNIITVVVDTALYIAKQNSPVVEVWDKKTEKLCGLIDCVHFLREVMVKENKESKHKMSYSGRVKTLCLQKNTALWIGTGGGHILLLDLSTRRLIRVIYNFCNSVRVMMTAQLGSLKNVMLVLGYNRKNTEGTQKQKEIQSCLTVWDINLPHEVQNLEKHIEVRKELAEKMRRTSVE
Chain of Mast/stem cell growth factor receptor Kit (Homo sapiens), P10721 [A829P] (P10721 whole entry A829P): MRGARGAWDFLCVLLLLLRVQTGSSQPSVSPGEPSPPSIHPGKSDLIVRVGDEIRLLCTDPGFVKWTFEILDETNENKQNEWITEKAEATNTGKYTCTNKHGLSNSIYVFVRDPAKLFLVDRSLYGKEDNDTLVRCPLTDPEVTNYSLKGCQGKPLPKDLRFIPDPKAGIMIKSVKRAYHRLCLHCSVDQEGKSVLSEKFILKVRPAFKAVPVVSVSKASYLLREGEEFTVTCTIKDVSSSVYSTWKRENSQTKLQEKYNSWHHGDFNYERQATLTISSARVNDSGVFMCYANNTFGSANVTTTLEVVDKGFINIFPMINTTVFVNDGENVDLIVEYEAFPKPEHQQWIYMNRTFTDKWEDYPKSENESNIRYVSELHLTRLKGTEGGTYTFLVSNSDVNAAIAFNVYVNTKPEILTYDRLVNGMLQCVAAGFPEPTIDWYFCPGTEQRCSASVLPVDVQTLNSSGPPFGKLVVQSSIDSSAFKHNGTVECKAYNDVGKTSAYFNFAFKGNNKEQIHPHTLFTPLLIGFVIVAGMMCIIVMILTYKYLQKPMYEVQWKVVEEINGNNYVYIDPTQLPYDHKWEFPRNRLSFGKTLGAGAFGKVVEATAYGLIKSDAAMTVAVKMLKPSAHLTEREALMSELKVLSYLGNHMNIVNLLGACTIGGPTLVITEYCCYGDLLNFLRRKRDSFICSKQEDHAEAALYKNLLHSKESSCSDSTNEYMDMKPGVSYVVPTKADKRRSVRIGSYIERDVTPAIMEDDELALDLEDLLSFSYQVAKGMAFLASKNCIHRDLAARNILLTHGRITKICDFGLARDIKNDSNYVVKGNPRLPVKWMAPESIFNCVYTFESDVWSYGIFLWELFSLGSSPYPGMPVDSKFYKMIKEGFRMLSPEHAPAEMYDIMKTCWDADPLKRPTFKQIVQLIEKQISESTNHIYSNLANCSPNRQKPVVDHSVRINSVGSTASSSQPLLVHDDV
Chain of Dual specificity protein kinase CLK3 (Homo sapiens) (P49761 whole entry, looked up): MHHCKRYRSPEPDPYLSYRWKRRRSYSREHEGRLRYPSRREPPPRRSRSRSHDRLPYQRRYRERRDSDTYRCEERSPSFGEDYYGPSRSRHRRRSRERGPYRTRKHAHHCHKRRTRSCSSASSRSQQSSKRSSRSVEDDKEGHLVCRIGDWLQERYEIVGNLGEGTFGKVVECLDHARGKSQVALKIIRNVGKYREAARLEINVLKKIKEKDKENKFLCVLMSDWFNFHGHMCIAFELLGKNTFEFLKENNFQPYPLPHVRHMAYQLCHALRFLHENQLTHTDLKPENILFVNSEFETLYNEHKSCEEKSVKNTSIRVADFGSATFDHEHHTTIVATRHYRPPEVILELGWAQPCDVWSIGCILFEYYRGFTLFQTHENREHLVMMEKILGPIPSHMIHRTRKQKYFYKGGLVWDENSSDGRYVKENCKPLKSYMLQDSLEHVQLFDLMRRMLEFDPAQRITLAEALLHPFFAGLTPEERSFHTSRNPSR
Chain of Cyclin-dependent kinase 16 (Homo sapiens) (Q00536 whole entry, canonical isoform): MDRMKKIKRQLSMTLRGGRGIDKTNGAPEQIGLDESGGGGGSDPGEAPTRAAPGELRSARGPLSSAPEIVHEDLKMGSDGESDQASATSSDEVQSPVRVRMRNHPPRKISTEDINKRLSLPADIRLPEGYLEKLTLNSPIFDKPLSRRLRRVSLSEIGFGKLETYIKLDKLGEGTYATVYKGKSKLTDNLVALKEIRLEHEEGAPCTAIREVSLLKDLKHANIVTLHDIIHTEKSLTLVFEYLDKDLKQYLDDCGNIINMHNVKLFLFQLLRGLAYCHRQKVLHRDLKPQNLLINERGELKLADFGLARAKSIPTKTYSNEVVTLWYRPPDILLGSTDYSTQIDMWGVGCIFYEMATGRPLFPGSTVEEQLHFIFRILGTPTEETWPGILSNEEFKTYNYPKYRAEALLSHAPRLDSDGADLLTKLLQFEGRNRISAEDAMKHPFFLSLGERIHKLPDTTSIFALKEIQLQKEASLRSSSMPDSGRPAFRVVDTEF
Chain of Mast/stem cell growth factor receptor Kit (Homo sapiens) (P10721 whole entry): as the sequence (P10721 whole entry A829P) above, with P829A counted along it

COCCOc1nc(-c2ccc(Cl)nc2)nc2c1CN(C(=O)c1ncn3ccccc13)CC2 [THPP-1]
inactive: inhibition [1] 1% | inhibition [2] 6% | inhibition [3] -3% | inhibition [4] 4% | inhibition (Rattus norvegicus) 11% | inhibition [5] 4% | inhibition (Homo sapiens) -8% | residual activity [6] 100% | residual activity [7] 97% | residual activity [8] 100% | residual activity [9] 100% | residual activity [10] 100% | residual activity [11] 100% | residual activity [12] 100% | residual activity [13] 100% | residual activity [14] 100% | residual activity [15] 83% | residual activity [16] 100% | residual activity [17] 100% | residual activity [18] 100% | residual activity [19] 100% | residual activity [20] 76% | residual activity [21] 100% | residual activity [22] 88% | residual activity [23] 100% | residual activity [24] 100% | residual activity [25] 100% | residual activity [26] 100% | residual activity [27] 100% | residual activity [28] 100% | residual activity [29] 87% | residual activity [30] 82% | residual activity [31] 100% | residual activity [32] 100% | residual activity [33] 100% | inhibition [34] 1% | inhibition [35] 8%

CC(C)CC(=O)N1CCc2nc(-c3ccc(Br)cc3)nc(N(C)Cc3ccccc3)c2C1 [THPP-1-NC]
inactive: residual activity [6] 100% | residual activity [7] 92% | residual activity [8] 100% | residual activity [9] 100% | residual activity [10] 100% | residual activity [11] 100% | residual activity [12] 93% | residual activity [13] 100% | residual activity [14] 100% | residual activity [15] 94% | residual activity [16] 100% | residual activity [17] 100% | residual activity [18] 100% | residual activity [19] 100% | residual activity [20] 72% | residual activity [21] 100% | residual activity [22] 97% | residual activity [23] 100% | residual activity [24] 100% | residual activity [25] 100% | residual activity [26] 95% | residual activity [27] 100% | residual activity [28] 100% | residual activity [29] 97% | residual activity [30] 89% | residual activity [31] 100% | residual activity [32] 100% | residual activity [33] 100%
